Like-named read-outs stand apart in the source and are kept apart here.
Columns and labels:
[1] = tested on: pathogenic microorganisms; details: cited from earlier work; for minimum effective concentration for high-level disinfection: 20° C.
Bacillus subtilis spores = details: cited from earlier work
[2] = Peracetic acid stability versus pH; format: physicochemical; details: acetic acid buffer at pH 5.0-5.8
[3] = second-order dependence on peracetic acid concentration (Yuan et al.); cited from earlier work

In the case of `OO` [Formulation H2O2, hydrogen peroxide], the “minimum effective concentration for high-level disinfection” value ([1]; 30 min, Sporox) is given as 6.0%, the “time for killing all Bacillus subtilis spores” value (Bacillus subtilis spores; pH 5) is given as 3 h and the “time for killing all Bacillus subtilis spores” value (Bacillus subtilis spores; pH 8) is given as 6 h.

In the case of `CC(=O)OO` [PAA, peracetic acid], the “minimum effective concentration for high-level disinfection” value ([1]; 25 min, Peract) is given as 0.05%, the “minimum effective concentration for high level disinfection in a short time interval or sterilization over a longer soak period” value [1] is given as 500 ppm and the “time for killing all Bacillus subtilis spores” value (Bacillus subtilis spores; PAA at 0.013 m/l (0.10% w/v), pH 5.0) is given as 1 h. For the same molecule, the “time for killing all Bacillus subtilis spores” value (Bacillus subtilis spores; PAA at 0.013 m/l (0.10% w/v), pH 8.0) was > 6 h, the “reduction in sporicidal rate of kill activity between pH 8.0 and pH 5.0” value (Bacillus subtilis spores; PAA at 0.13-0.38 m/l (0.99-2.89% w/v)) was “did not show a reduction” and the “decrease of sporicidal activity between pH 2.6 and pH 8.0 (factor)” value (Bacillus subtilis spores; work of Baldry) was 3-10 times. The “increase in sporicidal kill time at pH 8.0 versus 5.0” value (Bacillus subtilis spores; work of Baldry) was 6 times, the “increase in kill time at pH 2.6 versus pH 5.0” value (Bacillus subtilis spores; work of Baldry, possible factor) was 2 times and the “amount which can be stably maintained” value [2] was “less than 700 ppm”. The “pH of maximum decomposition rate” value [3] was 8.2.

— patent publication US6468472B1 (priority 1999, dated 2002)
